Data taken from patent US11344510B2, “Arylcyclohexylamine derivatives and their use in the treatment of psychiatric disorders” (Gilgamesh Pharmaceuticals, Inc., priority 2019, dated 2022).
Entries after “also recorded” stand apart in the source; their conditions may differ.

Columns and labels:
[1] = biological target: MK-801 binding site of the N-methyl-D-aspartate receptor (NMDAR); test: NMDAR radioligand binding with [3H]MK-801, Method A; design: species or system Wistar rat; settings: for Ki: MK-801 site, Method A, Wistar rat brain (minus cerebellum), 5.0 nM [3H]MK-801, read-out: NMDAR Ki ± SEM
Experimental: Radioligand Binding—Method A. Affinity of the test compounds for NMDAR was determined in radioligand binding experiments with [^3H]MK-801 by Eurofins Panlabs, Inc., using methods adapted from the literature (Javitt et al. 1987; Reynolds et al. 1989) and under the conditions described in Table 12.

CSDS-susceptible mice = test: Behavioral tests after chronic social defeat stress (CSDS); format: in vivo, C57BL/6 mice
[2] = MLM stability (Low Activity); format: in vitro ADME, CD-1 mice; settings: male, CD-1, mouse, liver microsomes, pH 7.4, Condition 1 (Low Activity), 0.50 mg protein/mL
How it was run: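 Pooled male CD-1 mouse liver microsomes (0.50 mg/mL) with 1 μM compound and 1 mM NADPH in 100 mM PBS pH 7.4 with 1 mM MgCl2, 37 °C, six time points over 60 min. Parent remaining by LC-MS/MS; kel, t1/2 and Clint from linear regression of ln(AUC) versus time.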

[3] = biological target: T1, serotonin transporter (SERT) (Homo sapiens, UniProt P31645); test: Fluorescent substrate uptake inhibition, SERT; format: cell-based; settings: for inhibition at 10 µM: HEK293 cells expressing SERT
T1 construct: expressed in transfected cells; host or cells: HEK293

[4] = biological target: T2, norepinephrine transporter (NET) (Homo sapiens, UniProt P23975); test: Fluorescent substrate uptake inhibition, NET; format: cell-based; settings: 10 μM, HEK293 cells expressing NET
T2 construct: expressed in transfected cells; host or cells: HEK293

[5] = system: monoamine transporters, MATs (SERT, NET, DAT, VMAT2); test: Monoamine uptake inhibition, monoamine transporters collectively; format: cell-based; settings: in words
Experimental: The ability of the compounds of the present invention to inhibit uptake of monoamines by the serotonin transporter (SERT), norepinephrine transporter (NET), dopamine transporter (DAT), and vesicular monoamine transporter 2 (VMAT2) (collectively monoamine transporters, MATs) was measured using fluorescent substrate uptake assays in transfected cells (Table 14). The binding affinities of select compounds were also determined in radioligand displacement assays at SERT, NET, and/or DAT (Table 14).
Uptake Inhibition. The ability of test compounds to block monoamine uptake by SERT, NET, DAT, and VMAT2 was determined using the Neurotransmitter Transporter Uptake Assay Kit manufactured by Molecular Devices (Cat #R8173). Briefly, stably transfected cells expressing the MAT of interest (HEK293 cells for SERT and NET; CHO cells for DAT) were grown and plated into 384-well plates at a concentration of 20,000 cells per well. Plates were then incubated for 16-20 h at 37° C. and 5% CO2. The medium was then aspirated and replaced with 25 μL of assay buffer (20 mM HEPES in HBSS, containing 0.1% BSA) containing the test compounds at the appropriate concentrations. Plates were then centrifuged at 300 rpm for 15 s and then incubated at 37° C. for 30 minutes. At this time, 25 μL of the proprietary fluorescent dye solution was added, the plates were incubated at 37° C. for 60 minutes, and then fluorescence was quantified on a plate reader (excitation wavelength=440 nm, emission wavelength=520 nm). The proprietary dye solution contains a mixture of 1) a fluorescent dye that mimics the endogenous substrates of MATs and is thereby actively transported to the intracellular compartment in the absence of an inhibitor and 2) a masking dye that inhibits the fluorescence of dye 1 in the extracellular compartment. Therefore, the overall fluorescence of the system increases as the fluorescent dye is transported into the cells.

[6] = biological target: MK-801 binding site of the N-methyl-D-aspartate receptor (NMDAR); test: NMDAR radioligand binding with [3H]MK-801, Method B; design: species or system Sprague Dawley rat; settings: MK-801 site, Method B, male Sprague Dawley rat cortex, 5.0 nM [3H]MK-801; read-out: NMDAR Ki ± SEM
Experimental: Radioligand Binding—Method B. Affinity of the test compounds for NMDAR was determined in radioligand binding experiments with [^3H]MK-801 by WuXi AppTec (Hong Kong) Limited, under the conditions described in Table 13.

[7] = HLM stability (Low Activity, Alternative Method); format: in vitro ADME; settings: both sexes, human, liver microsomes, pH 7.4, Condition 1 column, values marked *: Low Activity, 0.50 mg protein/mL
How it was run: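 Pooled male and female human liver microsomes (0.50 mg/mL) in 100 mM PBS pH 7.4 with 1 mM MgCl2 and 1 mM NADPH, compound 1 μM (1.0% solvent), 37° C with shaking, six time points over 60 min. Parent remaining measured by LC-MS/MS; kel, t1/2 and Clint from linear regression of ln(AUC) versus time.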

[8] = biological target: T3, vesicular monoamine transporter 2 (VMAT2) (Homo sapiens, UniProt Q05940); test: Fluorescent substrate uptake inhibition, VMAT2; format: cell-based; settings: 10 μM, transfected cells
T3 construct: expressed in transfected cells

[9] = biological target: T4, dopamine transporter (DAT) (Homo sapiens, UniProt Q01959); test: Fluorescent substrate uptake inhibition, DAT; format: cell-based; settings: 10 μM, CHO cells expressing DAT
T4 construct: expressed in transfected cells; host or cells: CHO (uptake)

[10] = RLM stability (Low Activity); format: in vitro ADME, Sprague Dawley rats; settings: male, Sprague Dawley, rat, liver microsomes, pH 7.4, Condition 1 (Low Activity), 0.50 mg protein/mL
How it was run: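 Pooled male Sprague Dawley rat liver microsomes (0.50 mg/mL) in PBS pH 7.4 with 1 mM MgCl2 and 1 mM NADPH; compound 1 μM, 1.0% solvent, 37° C. Six time points over 60 min, parent remaining by LC-MS/MS; kel, t1/2 and Clint from linear regression of ln(AUC) versus time.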

[11] = HLM stability (Low Activity); format: in vitro ADME; settings: both sexes, human, liver microsomes, pH 7.4, Condition 1 (Low Activity), 0.42 mg protein/mL
Experimental: For some of the compounds, stability was tested under two microsomal incubation conditions, one with normal enzymatic activity (low activity) and one with higher enzymatic loading, longer incubation time, and lower compound concentration (high activity) intended to increase metabolic lability.
(§1) HLM Stability (Low Activity). Pooled HLM from adult male and female donors (XenoTech H0630) were used. Microsomal incubations were carried out in 96-well plates in 5 aliquots of 40 μL, each (one for each time point). Liver microsomal incubation medium consisted of PBS (100 mM, pH 7.4), MgCl2 (3.3 mM), NADPH (3 mM), glucose-6-phosphate (5.3 mM), and glucose-6-phosphate dehydrogenase (0.67 units/mL), with 0.42 mg of liver microsomal protein per mL. Control incubations were performed by replacing the NADPH-cofactor system with PBS. Test compounds (2 μM, final solvent concentration 1.6%) were incubated with microsomes at 37° C., shaking at 100 rpm. Incubations were performed in duplicate. Five time points over 40 minutes were analyzed. The reactions were stopped by adding 12 volumes of 90% acetonitrile-water to incubation aliquots, followed by protein sedimentation by centrifugation at 5500 rpm for 3 minutes. Supernatants were analyzed for parent compound remaining using a fit-for-purpose liquid chromatography-tandem mass spectrometry (LC-MS/MS) method, with authentic samples of each analyte used for identity confirmation.
(§2) Data Analysis. The elimination constant (kel), half-life (t1/2) and intrinsic clearance (Clint) were determined in a plot of […] versus time, using linear regression analysis.

[12] = HLM stability (High Activity); format: in vitro ADME; settings: both sexes, human, liver microsomes, pH 7.4, Condition 2 (High Activity), 1.0 mg protein/mL
Experimental: as §1, with “Stability (High” for “Stability (Low”, “with 1.0” for “with 0.42”, “compounds (1” for “compounds (2”, “over 60” for “over 40”
as §2

SERT = biological target: T5, SERT (Homo sapiens, UniProt P31645); test: SERT radioligand binding with [3H]imipramine
T5 construct: expressed in transfected cells; host or cells: HEK293
Experimental: Radioligand Binding. Affinity of the test compounds for SERT, NET, and DAT was determined in radioligand binding experiments with [^3H]imipramine, [^3]nisoxetine, and [^3H]WIN35,428, respectively, by WuXi AppTec (Hong Kong) Limited, under the conditions described in Table 15.

[13] = 14.4 mg/kg i.p. as hydrogen tartrate salts

T1 sequence (P31645 whole entry, species assumed): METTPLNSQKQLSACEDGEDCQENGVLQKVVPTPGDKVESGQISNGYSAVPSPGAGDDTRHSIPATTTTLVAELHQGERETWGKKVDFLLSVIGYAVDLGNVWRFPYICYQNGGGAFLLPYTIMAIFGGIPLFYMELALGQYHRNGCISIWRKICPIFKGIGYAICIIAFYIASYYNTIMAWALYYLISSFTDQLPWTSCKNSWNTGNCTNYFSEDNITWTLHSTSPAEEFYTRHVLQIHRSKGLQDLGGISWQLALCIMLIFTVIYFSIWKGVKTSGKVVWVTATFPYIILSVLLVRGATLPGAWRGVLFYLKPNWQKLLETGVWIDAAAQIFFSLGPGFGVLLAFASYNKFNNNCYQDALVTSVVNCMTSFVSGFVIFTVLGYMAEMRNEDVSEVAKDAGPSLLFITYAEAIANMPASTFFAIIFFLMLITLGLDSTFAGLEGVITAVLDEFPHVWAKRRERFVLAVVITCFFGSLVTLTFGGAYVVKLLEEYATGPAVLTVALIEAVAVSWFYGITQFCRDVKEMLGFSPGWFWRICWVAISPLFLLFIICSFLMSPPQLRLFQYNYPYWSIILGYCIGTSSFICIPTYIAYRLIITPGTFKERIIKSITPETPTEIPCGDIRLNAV
T2 sequence (P23975 whole entry, species assumed): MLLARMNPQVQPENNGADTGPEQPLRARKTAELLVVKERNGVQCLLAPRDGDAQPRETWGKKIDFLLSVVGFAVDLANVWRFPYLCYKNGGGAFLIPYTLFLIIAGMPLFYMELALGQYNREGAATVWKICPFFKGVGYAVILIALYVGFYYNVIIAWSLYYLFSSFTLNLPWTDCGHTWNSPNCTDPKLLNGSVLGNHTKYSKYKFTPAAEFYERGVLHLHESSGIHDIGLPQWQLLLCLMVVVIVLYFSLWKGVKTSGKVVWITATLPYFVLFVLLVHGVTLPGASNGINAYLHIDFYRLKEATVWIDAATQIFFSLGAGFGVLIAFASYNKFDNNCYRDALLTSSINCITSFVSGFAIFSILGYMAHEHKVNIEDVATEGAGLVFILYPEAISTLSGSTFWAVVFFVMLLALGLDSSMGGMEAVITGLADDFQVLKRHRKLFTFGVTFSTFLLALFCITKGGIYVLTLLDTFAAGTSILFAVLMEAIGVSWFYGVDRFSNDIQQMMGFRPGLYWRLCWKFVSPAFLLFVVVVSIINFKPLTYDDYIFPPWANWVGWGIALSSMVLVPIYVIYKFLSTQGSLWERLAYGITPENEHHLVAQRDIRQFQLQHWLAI
T4 sequence (Q01959 whole entry, species assumed): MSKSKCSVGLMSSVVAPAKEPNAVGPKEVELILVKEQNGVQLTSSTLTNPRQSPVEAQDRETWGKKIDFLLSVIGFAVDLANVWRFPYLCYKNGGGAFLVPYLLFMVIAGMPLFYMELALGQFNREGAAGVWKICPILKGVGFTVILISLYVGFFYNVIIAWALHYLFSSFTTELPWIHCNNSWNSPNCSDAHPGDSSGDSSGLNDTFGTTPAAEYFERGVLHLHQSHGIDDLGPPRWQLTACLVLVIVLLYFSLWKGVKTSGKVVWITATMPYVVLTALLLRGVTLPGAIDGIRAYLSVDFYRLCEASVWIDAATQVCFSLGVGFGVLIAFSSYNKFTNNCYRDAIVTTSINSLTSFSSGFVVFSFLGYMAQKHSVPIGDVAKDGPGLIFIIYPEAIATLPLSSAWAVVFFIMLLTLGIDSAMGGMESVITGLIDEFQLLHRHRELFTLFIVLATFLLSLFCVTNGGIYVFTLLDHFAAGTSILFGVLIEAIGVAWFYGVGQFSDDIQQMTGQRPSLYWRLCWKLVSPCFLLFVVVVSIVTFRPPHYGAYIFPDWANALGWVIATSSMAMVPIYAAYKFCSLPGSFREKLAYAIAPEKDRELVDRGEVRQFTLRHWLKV
T3 sequence (Q05940 whole entry, species assumed): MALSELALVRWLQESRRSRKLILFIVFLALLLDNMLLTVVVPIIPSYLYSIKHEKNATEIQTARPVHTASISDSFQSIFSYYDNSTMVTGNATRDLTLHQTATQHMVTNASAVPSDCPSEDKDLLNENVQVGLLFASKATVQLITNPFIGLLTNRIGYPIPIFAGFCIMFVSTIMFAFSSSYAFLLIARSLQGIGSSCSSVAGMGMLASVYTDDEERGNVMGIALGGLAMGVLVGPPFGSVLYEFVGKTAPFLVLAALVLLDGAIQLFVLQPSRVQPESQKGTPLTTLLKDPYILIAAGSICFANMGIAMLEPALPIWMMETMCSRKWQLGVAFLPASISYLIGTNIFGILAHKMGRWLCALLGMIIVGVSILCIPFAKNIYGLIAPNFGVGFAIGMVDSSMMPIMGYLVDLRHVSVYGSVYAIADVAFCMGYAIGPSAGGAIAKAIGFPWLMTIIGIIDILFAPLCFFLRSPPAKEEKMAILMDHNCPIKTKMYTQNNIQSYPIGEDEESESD
T5 sequence (P31645 whole entry, species assumed): as the sequence (P31645 whole entry, species assumed) above

CN[C@]1(c2ccccc2F)CCCCC1=O [Compound 35S, (S)-2-(2-Fluorophenyl)-2-(methylamino)cyclohexan-1-one]
Ki [1]: 0.79 ± 0.21 µM
antidepressant-like activity in behavioral tests after CSDS (TST, FST, SPT) (CSDS-susceptible mice; [13]): induced antidepressant-like effects

CN[C@@]1(c2ccccc2F)CCCCC1=O [Compound 35R, (R)-2-(2-Fluorophenyl)-2-(methylamino)cyclohexan-1-one]
Ki [1]: 3.91 ± 0.4 µM
NMDAR binding, comparison in words ([1]; vs 35S, 35rac, racemic ketamine and R-ketamine): weaker NMDAR binding
antidepressant-like activity in behavioral tests after CSDS (TST, FST, SPT) (CSDS-susceptible mice; [13]): induced antidepressant-like effects; also recorded: more robust and longer lasting

CNC1(c2ccccc2Cl)CCCCC1=O (racemic) [racemic ketamine, reference compound]
antidepressant-like activity in behavioral tests after CSDS (TST, FST, SPT) (CSDS-susceptible mice; 10 mg/kg i.p., single dose): effective

CNC1(c2ccc(F)cc2)CCCCC1=O (racemic) [Compound 18rac, 2-(4-fluorophenyl)-2-(methylamino)cyclohexan-1-one]
microsomal CLint at 1 μM [2]: 13.7 µL/min/mg
inhibition at 10 µM [3]: 25.2%
inhibition at 10 µM [4]: 16%
selectivity for NMDAR (over MATs) [5]: greater selectivity for NMDAR
Ki [6]: 4.5 µM
half-life at 1 μM [7]: > 2.42 h
microsomal CLint at 1 μM [7]: < 9.6 µL/min/mg
inhibition at 10 µM [8]: 20.2%
inhibition at 10 µM [9]: 21.4%
microsomal CLint at 1 μM [10]: 19.6 µL/min/mg

NC1(c2ccccc2Cl)CCCCC1=O (racemic) [Compound 78rac]
half-life at 2 μM [11]: 4.28 h
microsomal CLint at 2 μM [11]: 7 µL/min/mg
Ki [1]: 4 µM
half-life at 1 μM [12]: 3.03 h
microsomal CLint at 1 μM [12]: 4 µL/min/mg

CCNC1(c2ccccc2)CCCCC1=O (racemic) [Compound 1rac]
half-life at 2 μM [11]: 2.22 h
microsomal CLint at 2 μM [11]: 13 µL/min/mg
Ki [1]: 0.3 µM
half-life at 1 μM [12]: 4.98 h
microsomal CLint at 1 μM [12]: 2 µL/min/mg

CC(C)N[C@@]1(c2ccccc2)CCCCC1=O [Compound 28R, (R)-2-(isopropylamino)-2-phenylcyclohexan-1-one]
half-life at 1 μM [2]: 0.188 h
microsomal CLint at 1 μM [2]: 123 µL/min/mg
IC50 [3]: 7.3 µM
inhibition at 10 µM [3]: 37.2%
inhibition at 10 µM [4]: 11.4%
Ki [6]: > 23 µM
Ki (SERT): 8.6 µM
half-life at 1 μM [7]: 1.16 h
microsomal CLint at 1 μM [7]: 20 µL/min/mg
inhibition at 10 µM [8]: -11.4%
inhibition at 10 µM [9]: 16.5%
half-life at 1 μM [10]: 0.438 h
microsomal CLint at 1 μM [10]: 52.6 µL/min/mg

CNC1(c2ccccc2I)CCCCC1=O (racemic) [Compound 37rac, 2-(2-Iodophenyl)-2-(methylamino)cyclohexan-1-one]
antidepressant-like activity in behavioral tests after CSDS (TST, FST, SPT) (CSDS-susceptible mice; 10 mg/kg i.p., single dose): not effective
antidepressant-like activity in behavioral tests after CSDS (TST, FST, SPT) (CSDS-susceptible mice; 30 mg/kg i.p., single dose): only partially effective
